Results: patent publication US7326689B2, “Pseudomycins useful against plant diseases” (Eli Lilly and Company, priority 2000, dated 2008)
Values joined by “and” are separate entries in the source; they are usually repeats but may differ in a detail not shown here. Identical values can stand only once.

Experiments:
Assay in all cases: Antifungal growth assay in potato dextrose broth, 24-well
Assay type in all cases: cell-based
Septoria tritici = details: 3x assays
Method: (§1) Fungi to be tested were propagated on potato dextrose agar (PDA) plates at room temperature. Stock solutions of pseudomycins and depsipeptide were suspended in dimethylsulfoxide (DMSO) (Sigma) at 5 mg/ml and stored at −20C. Serial dilutions of compounds were done the day of the experiment. All serial dilutions were made in DMSO. […] These are noted in the raw data section.
(§2) Assays were performed in 24-well cell culture clusters (Costar 3524), with 990 ul potato dextrose broth (PDB, Difco) and 10 ul of the compound to be tested in each well. Initial concentrations tested were 50-1.56 ug/ml (final concentration of pseudomycin). Actual concentrations of pseudomycins tested were 50, 25, 12.5, 6.25, 3.12 and 1.56 ug/ml. Each well was inoculated with the appropriate fungus. Unless noted, the fungal inoculum consisted of an ˜4 mm^2 piece of PDA with fungal mycelium. The exceptions were as follows. Ustilago maydis: this fungus grows much like a yeast on PDA, and cells were scraped from the PDA stock plate, resuspended in PDB and 10 ul inoculum added to each well. Monilinia sp.: this fungal mycelium grows as a very loose sheet on top of PDA and would not adhere to agar blocks. Fungal mycelium was ground with a metal rod in 500 ul PDB and 10 ul inoculum was added to each well. Mycosphaeella fijiensis, Septoria passerinii, Septoria triticii: these fungi all grow very slowly and the results were difficult to score if a small piece of agar with fungal mycelium on it was used as an inoculum. For these fungi, the mycelium was ground with a metal rod in 500 ul PDB and 10 ul inoculum was added to each well.
(§3) Wells were scored for fungal growth at two days and five days. Some slow growing fungi were scored at later days for growth because assessment was not possible at two or five days. Growth was scored by comparison to a control consisting of fungus inoculated into 990 ul potato dextrose broth and 10 ul of DMSO (Dimethylsulfoxide). An additional control consisting of fungal inoculum in PDB only was performed to ensure that the DMSO was not inhibitory to fungal growth.
(§4) For assays that were repeated, new stock solutions were made from a second shipment of pseudomycins. Note that pseudomycin B′ and depsipeptide stock solutions were remade from first shipment materials because these were not included in the second shipment. […] Actual concentrations of pseudomycins tested were 2, 1, 0.5, 0.25, 0.125 and 0.0625 ug/ml. A-PO4 and A-FB=pseudomycin A phosphate salt and free base respectively.
(§5) Table 2: Two day results—concentration indicated is lowest level of compound (ug /ml) that results is no growth. NI, no inhibition; p (partial), at least 50% inhibited; -, not determined. If number of assays was greater than one, number of assays performed on the fungus is noted in parentheses. For several slow-growing fungi, days elapsed before observation (if different than two) are noted.
(§6) Table 3: Five day results—concentration indicated is lowest level of compound (ug /ml) that results in no growth. NI, no inhibition; p (partial), at least 50% inhibited; -, not performed on the fungus is noted in parentheses. For several slow-growing fungi, days elapsed before observation (if different than five) are noted.

[1] = system: Mycosphaeella fijiensis (8088/88); details: 3x assays
Method: as §1, §2, §3, §4, §5, §6

[2] = system: Mycosphaeella fijiensis (Sigatoka); details: 3x assays
Method: as §1, §2, §3, §4, §5, §6

Rhizoctonia solani = details: 2x assays
Method: as §1, §2, §3, §4, §5, §6

Drechslera portulacae = details: 3x assays
Method: as §1, §2, §3, §4, §5, §6

Geotrichim candidum = details: 3x assays
Method: as §1, §2, §3, §4, §5, §6

Ustilago maydis = details: 3x assays
Method: as §1, §2, §3, §4, §5, §6

Penicillium roqueforti = details: 3x assays
Method: as §1, §2, §3, §4, §5, §6

Septoria passerinii = details: 3x assays
Method: as §1, §2, §3, §4, §5, §6

Monilinia sp. = details: 2x assays
Method: as §1, §2, §3, §4, §5, §6

Fusarium avenaceum = system: Fusarium avenaceum; design: key: NI, no inhibition; p (partial), at least 50% inhibited
Outline: (§7)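 Inoculation used ~4 mm^2 PDA mycelial blocks, except for M. fijiensis, where ground mycelium in PDB was used because of its slow growth. Compound levels in broth were 50–1.56 ug/ml final. The endpoint was absence of growth versus DMSO control, scored on day 2 and day 5.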

[3] = system: Pestalotiopsis microspora NE-32; design: key: NI, no inhibition; p (partial), at least 50% inhibited
Outline: as §7

Diplodia natalensis = system: Diplodia natalensis; design: key: NI, no inhibition; p (partial), at least 50% inhibited
Outline: as §7

Cochliobolus carbonum = system: Cochliobolus carbonum; design: key: NI, no inhibition; p (partial), at least 50% inhibited
Outline: as §7

[4] = system: Drechslera tritici-repentis; design: key: NI, no inhibition; p (partial), at least 50% inhibited
Outline: as §7

[5] = Table 2 (two day results), observed at 7 day
[6] = Table 3 (five day results), observed at 21 days
[7] = Table 3 (five day results), observed at 9 day

| Substance | lowest level of compound that results in no growth (Septoria tritici; two day results) [µg/mL] | lowest level of compound that results in no growth [1, 5] [µg/mL] | lowest level of compound that results in no growth [2, 5] [µg/mL] | lowest level of compound that results in no growth [2, 6] [µg/mL] | lowest level of compound that results in no growth (Rhizoctonia solani; five day results) | lowest level of compound that results in no growth (Rhizoctonia solani; two day results) | lowest level of compound that results in no growth (Drechslera portulacae; [7]) | lowest level of compound that results in no growth (Drechslera portulacae; two day results) [µg/mL] | lowest level of compound that results in no growth (Geotrichim candidum; five day results) [µg/mL] | lowest level of compound that results in no growth (Geotrichim candidum; two day results) [µg/mL] | lowest level of compound that results in no growth (Ustilago maydis; five day results) [µg/mL] | lowest level of compound that results in no growth (Ustilago maydis; two day results) [µg/mL] | lowest level of compound that results in no growth (Penicillium roqueforti; five day results) | lowest level of compound that results in no growth (Penicillium roqueforti; two day results) [µg/mL] | lowest level of compound that results in no growth (Septoria passerinii; two day results) [µg/mL] | lowest level of compound that results in no growth (Monilinia sp.; five day results) [µg/mL] | lowest level of compound that results in no growth (Monilinia sp.; two day results) [µg/mL] | lowest level of compound that results in no growth (Fusarium avenaceum; five day results) | lowest level of compound that results in no growth (Fusarium avenaceum; two day results) | lowest level of compound that results in no growth ([3]; five day results) | further results |
| --- | --- | --- | --- | --- | --- | --- | --- | --- | --- | --- | --- | --- | --- | --- | --- | --- | --- | --- | --- | --- | --- |
| Pseudomycin B | 0.06 | 0.06 | 0.5 | 1 | 50 µg/mL | 6.25 µg/mL | 0.0625 µg/mL and 0.06 µg/mL | 0.06 | 3.12 | 1.56 | 0.5 | 0.5 | 6.25 µg/mL | 0.5 | 0.06 | 6.25 | 3.13 | NI | NI | p at 50 | lowest level of compound that results in no growth (Septoria tritici; five day results, listed as B): 0.06 µg/mL; lowest level of compound that results in no growth (Septoria tritici; five day results, listed as pseudomycin B): 0.0625 µg/mL; lowest level of compound that results in no growth ([1]; Table 3 (five day results), observed at 21 days, listed as B): 0.12 µg/mL; lowest level of compound that results in no growth ([1]; Table 3 (five day results), observed at 21 days, listed as pseudomycin B): 0.125 µg/mL; lowest level of compound that results in no growth (Septoria passerinii; five day results, listed as B): 0.0625 µg/mL and 0.06 µg/mL; lowest level of compound that results in no growth ([3]; two day results): p at 50; lowest level of compound that results in no growth (Diplodia natalensis; five day results): NI; lowest level of compound that results in no growth (Diplodia natalensis; two day results): NI; lowest level of compound that results in no growth (Cochliobolus carbonum; five day results): NI; lowest level of compound that results in no growth (Cochliobolus carbonum; two day results): NI; lowest level of compound that results in no growth ([4]; five day results): p at 50; lowest level of compound that results in no growth ([4]; two day results, 2x assays): 50 µg/mL |
| Pseudomycin B′ | 0.5 | 0.5 | 0.5 | 1 | 6.25 µg/mL | 6.25 µg/mL | 0.25 µg/mL | 0.12 | 25 | 25 | 3.12 | 1.56 | 1.56 µg/mL | 1.56 | 0.5 | 25 | 25 | NI | NI | NI | lowest level of compound that results in no growth (Septoria tritici; five day results): 0.5 µg/mL; lowest level of compound that results in no growth [1, 6]: 1 µg/mL; lowest level of compound that results in no growth (Septoria passerinii; five day results): 0.5 µg/mL; lowest level of compound that results in no growth ([3]; two day results): NI; lowest level of compound that results in no growth (Diplodia natalensis; five day results): NI; lowest level of compound that results in no growth (Diplodia natalensis; two day results): NI; lowest level of compound that results in no growth (Cochliobolus carbonum; five day results): NI; lowest level of compound that results in no growth (Cochliobolus carbonum; two day results): NI; lowest level of compound that results in no growth ([4]; five day results): p at 50; lowest level of compound that results in no growth ([4]; two day results, 2x assays): 50 µg/mL |
| Pseudomycin C | 0.125 | 0.125 | 1.56 | 1.56 | p at 50 | 25 µg/mL | 0.0625 µg/mL and 0.06 µg/mL | 0.06 | 25 | 3.12 | 0.25 | 0.25 | 12.5 µg/mL | 1.56 | 0.06 | 12.5 | 6.25 | NI | NI | NI | lowest level of compound that results in no growth (Septoria tritici; five day results): 0.25 µg/mL; lowest level of compound that results in no growth [1, 6]: 0.25 µg/mL; lowest level of compound that results in no growth (Septoria passerinii; five day results): 0.0625 µg/mL and 0.06 µg/mL; lowest level of compound that results in no growth ([3]; two day results): NI; lowest level of compound that results in no growth (Diplodia natalensis; five day results): NI; lowest level of compound that results in no growth (Diplodia natalensis; two day results): NI; lowest level of compound that results in no growth (Cochliobolus carbonum; five day results): NI; lowest level of compound that results in no growth (Cochliobolus carbonum; two day results): NI; lowest level of compound that results in no growth ([4]; five day results): NI; lowest level of compound that results in no growth ([4]; two day results, 2x assays): 50 µg/mL |
| Pseudomycin C′ | 0.125 | 0.125 | 1.56 | 1.56 | p at 50 | p at 50 | 0.5 µg/mL | 0.05 | 6.25 | 1.56 | 0.25 | 0.25 | p at 50 | 1.56 | 0.06 | 6.25 | 3.12 | NI | NI | NI | lowest level of compound that results in no growth (Septoria tritici; five day results): 0.25 µg/mL; lowest level of compound that results in no growth [1, 6]: 0.25 µg/mL; lowest level of compound that results in no growth (Septoria passerinii; five day results): 0.0625 µg/mL and 0.06 µg/mL; lowest level of compound that results in no growth ([3]; two day results): NI; lowest level of compound that results in no growth (Diplodia natalensis; five day results): NI; lowest level of compound that results in no growth (Diplodia natalensis; two day results): NI; lowest level of compound that results in no growth (Cochliobolus carbonum; five day results): NI; lowest level of compound that results in no growth (Cochliobolus carbonum; two day results): NI; lowest level of compound that results in no growth ([4]; five day results): NI; lowest level of compound that results in no growth ([4]; two day results, 2x assays): 50 µg/mL |
